Assay: Human HepG2 cell viability assay in 384 well format
Assay type: toxicity, cell-based
Parameters: dose 125 nL, time 70.5 hour; concentration not given beside the values
Details: HepG2 cells, read-out: Inhibition

Point of comparison: N#Cc1cccc(CN2CCCC2Cn2cncn2)c1 (stereo unspecified), cytotoxicity at 70.5 h -4.98%. Against it:
- COc1ccccc1OC1CCN(C(=O)c2c[nH]c(=O)[nH]c2=O)CC1 — higher, -4.88%
- Cc1noc2ncc(C(=O)N3CCCC(n4cccn4)C3)cc12 (stereo unspecified) — higher, -2.98%
- CC(C)OCCCNC(=O)CS(=O)(=O)Cc1cccc(Cl)c1 — lower, -10.6%
- O=C(NC1=NCCS1)C1CSCN1C(=O)C1CCCC1 (stereo unspecified) — lower, -12.4%
- CC(C)COCC(NC(=O)c1ccccn1)c1ccco1 (stereo unspecified) — lower, -10.5%
- c1ccc(CNc2ccccc2N2CCCC2)nc1 — lower, -18.2%
- COCCCN1CCCC1c1noc(C2CC2)n1 (stereo unspecified) — higher, 23.8%
- Cc1nc(C2CCCN2CC(=O)Nc2cc(C(C)(C)C)nn2C)no1 (stereo unspecified) — lower, -6.05%
- Cc1c(-c2cc(C(=O)N3CCc4ncc(Cl)cc4C3)on2)cnn1C — higher, 35%
- CN(C)CCn1ccnc1C1CCN(C(=O)CCC(F)(F)F)CC1 — lower, -7.92%
- CCNC(=O)N(C)CCCc1n[nH]c(N)c1C#N — higher, 17.3%
- CCc1nc2c(NCC3COc4cc(OC)ccc4C3)ncnc2o1 (stereo unspecified) — lower, -5.75%
- O=C(NCCN1CCCCCC1)c1coc(COc2ccc(F)cc2)n1 — higher, 8.68%
- CC(=O)N(CCc1nc(-c2cc(C(N)=O)oc2C)cs1)C(C)C — lower, -8.28%
- CN1CCCN(C[C@@H]2CN(C(=O)N3CCOCC3)C[C@@H]2CO)CC1 — higher, -3.11%
- CCC(=O)Nc1ccc(N2CCC(OC)CC2)c(C(F)(F)F)c1 — higher, -4.77%
- O=C(c1ccc[nH]1)N1CCCn2c(CNC3CCC3)nnc2C1 — higher, -4.17%
- CN(CCN1CCCCCC1)C(=O)c1c(O)cccc1O — higher, -2.54%
- Cc1nc(C)c(C(=O)N2CCC(O)(Cn3ccc4ccncc43)CC2)s1 — higher, 1.41%
- CNC(=O)CN1CCC(NC(=O)N(C)Cc2cc(C)on2)CC1 — lower, -10.8%
- CN(C(=O)CN1CCCc2cc(F)cc(F)c21)c1ccccc1 — lower, -16.8%
- Cc1ccc(NC(=O)C2=CN=S=N2)cc1 — higher, 18.8%
- Cc1c(C(=O)NC2CCCOc3cc(Cl)ccc32)cnn1C (stereo unspecified) — lower, -15.2%
- CNc1cc(C)nc(-c2cc(NC3CCNCC3)nc3[nH]ccc23)n1 — higher, -4.41%
- CCN(CC1CCOC1)C(=O)Cn1nnn(-c2cccs2)c1=O (stereo unspecified) — lower, -15.9%
- CN1CCN(C(=O)C2CN(Cc3cc4ccccc4o3)CCN2)CC1 (stereo unspecified) — higher, -3.72%
- CCn1nc(C)c(NC(=O)CN2CC[C@@H](F)C2)c1C — higher, -4.28%
- CNC(=O)Cc1noc(-c2cc3c(s2)CCCC3)n1 — lower, -8.17%
- CCN1C(=O)CC[C@@H]2[C@H]1CCN2C(=O)Cc1cccc(OC)c1 — higher, 0.943%
- Cc1cccc2[nH]c(C3CCN(C(=O)c4ccc[nH]4)CC3)nc12 — lower, -6.62%
- Cc1cccc(-n2ncc3c2CCCC3NCC(C)(C)CO)c1C (stereo unspecified) — lower, -10.7%
- CSc1ccc(C(C(=O)O)N2CCC(C(=O)N3CCCC3)CC2)cc1 (stereo unspecified) — higher, -4.74%
- CCOc1ccnc(N2CCN(C(=O)c3cc(Cl)c[nH]3)CC2)n1 — higher, 25.8%
- CCc1cnc(NCC(CC)N2CCOCC2)nc1 (stereo unspecified) — lower, -6.68%
- Cc1ccccc1CNC(=O)CNc1ccc(OC2CCOC2)cc1 (stereo unspecified) — lower, -13.6%
- Cn1c(NCCN2CCCCCC2)c(C#N)c(=O)n(C)c1=O — lower, -7.25%
- CNC(=O)c1cn[nH]c1C1CCN(Cc2ccccc2OC)C1 (stereo unspecified) — lower, -8.12%
- O=C(NC[C@H]1OC[C@@H](N(CC2CC2)CC2CC2)[C@@H]1O)Nc1ccccc1 — lower, -8.13%
- Cc1nc(CC(=O)N2CCCCC2c2ccn3ccnc3n2)cs1 (stereo unspecified) — lower, -12.6%
- O=c1oc(-c2ccc(F)cc2)nn1CCc1ccccn1 — higher, 2.48%
- CCSc1nnc(N(CCC#N)CCC#N)s1 — higher, 1.21%
- COc1cc2c(cc1OC)CCN(C(=O)Cn1nc(C)cc1C)CC2 — higher, 2.01%
- COCCN1CC(C(=O)NCc2cccnc2-n2cccn2)CC1=O (stereo unspecified) — lower, -7.22%
- O=C1CC(c2ccc(C(=O)O)cc2)c2ncn(-c3ccccc3F)c2N1 (stereo unspecified) — lower, -11.1%
- Cc1nn(C)c2c(N3CCN(C)CC3)nc(C3CC3)nc12 — lower, -11.8%

Reference: ChEMBL document CHEMBL3507680, “University of Dundee, Gates Library screen for HepG2 cell viability”
